{
  "source": "patent US6780839B2",
  "about": "“Use of secretin-receptor ligands in treatment of cystic fibrosis (CF) and chronic obstructive pulmonary disease (COPD)” (Pharmagene Laboratories Ltd., priority 2000, dated 2004)",
  "key": {"[1]": {"tested_on": "human tertiary bronchus from non-CF donors", "experiment": "Short circuit current across the bronchial wall, modified Ussing chamber", "format": "cell-based", "excerpt": "In brief, non-branching regions of the human tertiary bronchus from non-CF donors were dissected, cut longitudinally and mounted in between the two compartments of a modified Ussing chamber to measure the short circuit current across the bronchial wall. Both luminal (airway) and basolateral membranes were bathed in oxygenated Krebs extracellular solution and the tissue voltage clamped to zero to allow changes in short circuit current in response to secretin to be measured. Amiloride at a concentration of 10 μM was initially added to the luminal membrane (FIG. 5, point a)(as described by those in the art) to partially block the predominant sodium ion current and unmask underlying ionic currents. On attainment of a stable base line, 3 μM human secretin (supplied by Sigma, catalogue number S714) was added to the luminal membrane (FIG. 5, point b)."}, "[2]": {"tested_on": "primary human tertiary bronchial epithelial cells", "experiment": "Cl- efflux by MQAE fluorescence", "format": "cell-based", "conditions": "FIG. 8", "method": "Molecular Probes). In brief, primary human, tertiary bronchial epithelial cells were isolated as previously described and cultured in a 96 well plate. On reaching confluency, cells were loaded overnight with 4 mM MQAE. Cells were washed in a chloride containing HEPES buffer, before passive Cl^− efflux was initiated by the addition of a Cl^− free buffer. […] 100 nM Secretin mediated Cl^− efflux was inhibited by the non-selective Cl^− blocker NPPB (open circles)."}, "[3]": {"tested_on": "human CF tertiary bronchus", "experiment": "Short circuit current in CF bronchus, modified Ussing chamber", "format": "cell-based", "protocol": "The experiment described above was repeated using human CF tertiary bronchus, using 1 μM secretin."}, "[4]": {"tested_on": "primary human tertiary bronchial epithelial cells derived from non-CF donors", "experiment": "Short circuit current in confluent tertiary bronchial epithelial cell monolayers, modified Ussing chamber", "format": "cell-based", "excerpt": "Functional effects of the secretin receptor were probed in epithelial cells derived from the human tertiary bronchus. In brief, tertiary bronchial epithelial were isolated by overnight protease digestion and then cultured until confluency on Snapwell (Costar) permeable supports. The supports were mounted in a modified Ussing chamber, and both luminal and basolateral membranes were bathed in oxygenated Krebs extracellular solution. The cells were voltage clamped to zero to allow changes in short circuit current Isc in response to secretin to be measured. As previously described, 10 μM amiloride was initially added to the luminal membrane (FIG. 6, point a)followed by the addition of 100 μM secretin to the luminal membrane (FIG. 6, point b). A time matched, amiloride-treated control is denoted by the thin trace."}, "[5]": {"tested_on": "rats", "conditions": "injected intracerebroventricularly; cited from earlier work"}, "[6]": {"tested_on": "rat cholangiocytes", "conditions": "by translocation of AQP-1 water channels; cited from earlier work"}, "[7]": {"conditions": "10 μM ATP or UTP on apical membrane, FIG. 5 point c"}},
  "data": [
    {"compound": "Nc1ncnc2c1ncn2[C@@H]1O[C@H](COP(=O)(O)OP(=O)(O)OP(=O)(O)O)[C@@H](O)[C@H]1O", "note": "[ATP]", "values": [
      {"measurement": "ionic movement (short circuit current)", "setting": "[1]; [7]", "value": "stimulate a similar ionic movement of similar magnitude"}
    ]},
    {"compound": "O=C(O)c1cc([N+](=O)[O-])ccc1NCCCc1ccccc1", "note": "[NPPB, 5-nitro-2-(3-phenylpropyl-amino)benzoic acid]", "values": [
      {"measurement": "effect on secretin mediated changes in MQAE fluorescence (Cl- efflux)", "setting": "[2]; 100 μM NPPB with 100 nM secretin", "value": "abolished"}
    ]},
    {"compound": "O=c1ccn([C@@H]2O[C@H](COP(=O)(O)OP(=O)(O)OP(=O)(O)O)[C@@H](O)[C@H]2O)c(=O)[nH]1", "note": "[UTP]", "values": [
      {"measurement": "ionic movement (short circuit current)", "setting": "[1]; [7]", "value": "stimulate a similar ionic movement of similar magnitude"}
    ]},
    {"compound": "N=C(N)NC(=O)c1nc(Cl)c(N)nc1N", "note": "[amiloride]", "values": [
      {"measurement": "effect on underlying sodium current", "setting": "[3]; amiloride, FIG. 7 point a", "value": "blocks the underlying sodium current"}
    ]},
    {"compound": "COc1ccc(Cl)cc1C(=O)NCCc1ccc(S(=O)(=O)NC(=O)NC2CCCCC2)cc1", "note": "[glibenclamide]", "values": [
      {"measurement": "suppression of secretin mediated ionic movement", "setting": "[4]; 500 μM glibenclamide (CFTR inhibitor)", "value": "failed to suppress secretin mediated ionic movement"}
    ]},
    {"compound": "secretin", "values": [
      {"measurement": "Cl- efflux (changes in MQAE fluorescence)", "setting": "[2]; nanomolar concentrations of secretin (12.5 nM, 100 nM), Cl- free buffer", "value": "stimulated Cl^− efflux"},
      {"measurement": "ionic movement (short circuit current)", "setting": "[3]; 1 μM secretin after amiloride, FIG. 7 point b", "value": "stimulates ionic movement of a negatively charged ion"},
      {"measurement": "ionic movement (short circuit current Isc)", "setting": "[4]; 100 μM secretin on luminal membrane after 10 μM amiloride, FIG. 6", "value": "stimulated ionic movement in a manner consistent with the movement of a negatively charged ion"},
      {"measurement": "ionic movement (short circuit current)", "setting": "[1]; 3 μM human secretin on luminal membrane after 10 μM amiloride, FIG. 5", "value": "stimulate ionic movement in a manner consistent with the movement of a negatively charged ion"},
      {"measurement": "defecation", "setting": "[5]", "value": "significantly increased defecation"},
      {"measurement": "novel-object approaches", "setting": "[5]", "value": "decreased novel-object approaches"},
      {"measurement": "stereotypic behaviour", "setting": "[5]", "value": "no significant effects on stereotypic behaviour"},
      {"measurement": "concentration dependent increase in osmotic H2O permeability", "setting": "[6]", "value": 60, "unit": "%"}
    ]}
  ]
}
